Columns and labels:
Rattus norvegicus [1] = test: Antiinflammatory activity against carrageenan-induced paw oedema in Wistar Albino rat assessed as mean swelling paw volume at 50 mg/kg, ip after 2 hrs; type: functional; settings: route intraperitoneal
Rattus norvegicus [2] = test: Antiinflammatory activity in Wistar Albino rat assessed as inhibition of carrageenan-induced paw oedema at 50 mg/kg, ip after 2 hrs; type: functional; settings: route intraperitoneal
Rattus norvegicus [3] = test: Antiinflammatory activity in Wistar Albino rat assessed as inhibition of carrageenan-induced paw oedema at 50 mg/kg, ip after 3 hrs; type: functional; settings: route intraperitoneal
Rattus norvegicus [4] = test: Antiinflammatory activity against carrageenan-induced paw oedema in Wistar Albino rat assessed as mean swelling paw volume at 50 mg/kg, ip after 4 hrs; type: functional; settings: route intraperitoneal
Rattus norvegicus [5] = test: Antiinflammatory activity against carrageenan-induced paw oedema in Wistar Albino rat assessed as mean swelling paw volume at 50 mg/kg, ip after 3 hrs; type: functional; settings: route intraperitoneal
Rattus norvegicus [6] = test: Antiinflammatory activity in Wistar Albino rat assessed as inhibition of carrageenan-induced paw oedema at 50 mg/kg, ip after 1 hr; type: functional; settings: route intraperitoneal
Rattus norvegicus [7] = test: Antiinflammatory activity against carrageenan-induced paw oedema in Wistar Albino rat assessed as mean swelling paw volume at 50 mg/kg, ip after 1 hr; type: functional; settings: route intraperitoneal
Rattus norvegicus [8] = test: Antiinflammatory activity in Wistar Albino rat assessed as inhibition of carrageenan-induced paw oedema at 50 mg/kg, ip after 4 hrs; type: functional; settings: route intraperitoneal
Mus musculus = test: Toxicity in intraperitoneally dosed Albino mouse after 24 hrs; type: organism-based; settings: in vivo, ip
Rattus norvegicus [9] = test: Antiinflammatory activity against carrageenan-induced paw oedema in Wistar Albino rat assessed as mean swelling paw volume at 5 mg/kg, ip after 3 hrs; type: functional; settings: route intraperitoneal
Rattus norvegicus [10] = test: Antiinflammatory activity in Wistar Albino rat assessed as inhibition of carrageenan-induced paw oedema at 5 mg/kg, ip after 4 hrs; type: functional; settings: route intraperitoneal
Rattus norvegicus [11] = test: Antiinflammatory activity against carrageenan-induced paw oedema in Wistar Albino rat assessed as mean swelling paw volume at 5 mg/kg, ip after 4 hrs; type: functional; settings: route intraperitoneal
Rattus norvegicus [12] = test: Antiinflammatory activity in Wistar Albino rat assessed as inhibition of carrageenan-induced paw oedema at 5 mg/kg, ip after 1 hr; type: functional; settings: route intraperitoneal
Rattus norvegicus [13] = test: Antiinflammatory activity against carrageenan-induced paw oedema in Wistar Albino rat assessed as mean swelling paw volume at 5 mg/kg, ip after 1 hr; type: functional; settings: route intraperitoneal
Rattus norvegicus [14] = test: Antiinflammatory activity against carrageenan-induced paw oedema in Wistar Albino rat assessed as mean swelling paw volume at 5 mg/kg, ip after 2 hrs; type: functional; settings: route intraperitoneal
Rattus norvegicus [15] = test: Antiinflammatory activity in Wistar Albino rat assessed as inhibition of carrageenan-induced paw oedema at 5 mg/kg, ip after 3 hrs; type: functional; settings: route intraperitoneal
Rattus norvegicus [16] = test: Antiinflammatory activity in Wistar Albino rat assessed as inhibition of carrageenan-induced paw oedema at 5 mg/kg, ip after 2 hrs; type: functional; settings: route intraperitoneal

Compound | Activity (Rattus norvegicus [1]) [mL] | inhibition in vivo at 50 mg/kg (Rattus norvegicus [2]) [%] | inhibition in vivo at 50 mg/kg (Rattus norvegicus [3]) [%] | Activity (Rattus norvegicus [4]) [mL] | Activity (Rattus norvegicus [5]) [mL] | inhibition in vivo at 50 mg/kg (Rattus norvegicus [6]) [%] | Activity (Rattus norvegicus [7]) [mL] | inhibition in vivo at 50 mg/kg (Rattus norvegicus [8]) [%] | Activity (Mus musculus) | Activity (Rattus norvegicus [9]) [mL] | inhibition in vivo at 5 mg/kg (Rattus norvegicus [10]) [%] | Activity (Rattus norvegicus [11]) [mL] | inhibition in vivo at 5 mg/kg (Rattus norvegicus [12]) [%] | Activity (Rattus norvegicus [13]) [mL] | Activity (Rattus norvegicus [14]) [mL] | inhibition in vivo at 5 mg/kg (Rattus norvegicus [15]) [%] | inhibition in vivo at 5 mg/kg (Rattus norvegicus [16]) [%]
C1COCCN1.COc1ccc(-c2c(C#N)c(S)[nH]c(=S)c2C#N)cc1.O | 0.498 | 55.5 | 67.8 | 0.536 | 0.44 | 30.6 | 0.42 | 66.5 | – | – | – | – | – | – | – | – | –
COc1nc2c(c(-c3ccccc3)c1C#N)CCSc1ccccc1-2 | 0.437 | 61 | 59.2 | 0.305 | 0.558 | 54 | 0.278 | 80.9 | – | – | – | – | – | – | – | – | –
COc1nc2c(c(-c3ccco3)c1C#N)CCSc1ccccc1-2 | 0.548 | 51.1 | 58.2 | 0.508 | 0.572 | 79.5 | 0.124 | 68.3 | – | – | – | – | – | – | – | – | –
COc1nc2c(c(-c3ccc(Cl)cc3)c1C#N)CCSc1ccccc1-2 | 0.283 | 74.7 | 79.8 | 0.396 | 0.277 | 63.1 | 0.223 | 75.3 | – | – | – | – | – | – | – | – | –
CCOc1nc2c(c(-c3ccc(Cl)cc3)c1C#N)CCSc1ccccc1-2 | 0.138 | 87.7 | 88.5 | 0.212 | 0.158 | 81.3 | 0.113 | 86.8 | Non-toxic | – | – | – | – | – | – | – | –
COc1ccc(-c2c(C#N)c(OC)nc3c2CCSc2ccccc2-3)cc1 | 0.203 | 81.9 | 87 | 0.238 | 0.178 | 58.7 | 0.25 | 85.1 | Non-toxic | – | – | – | – | – | – | – | –
N#Cc1c(-c2ccc(Br)cc2)c2c([nH]c1=S)-c1ccccc1SCC2 | 0.485 | 56.7 | 63.8 | 0.485 | 0.495 | 38 | 0.375 | 69.7 | – | – | – | – | – | – | – | – | –
CCOc1nc2c(c(-c3ccc(OC)cc3)c1C#N)CCSc1ccccc1-2 | 0.23 | 79.5 | 90.6 | 0.2 | 0.128 | 62 | 0.23 | 87.5 | Non-toxic | – | – | – | – | – | – | – | –
COc1ccc(-c2c3c([nH]c(=S)c2C#N)-c2ccccc2SCC3)cc1 | 0.355 | 68.3 | 63.5 | 0.7 | 0.5 | 54.5 | 0.275 | 56.3 | – | – | – | – | – | – | – | – | –
C1CCNCC1.COc1ccc(-c2c(C#N)c(S)[nH]c(=S)c2C#N)cc1.O | 0.594 | 47 | 57 | 0.658 | 0.588 | 9.4 | 0.548 | 58.9 | – | – | – | – | – | – | – | – | –
COc1nc2c(c(-c3cccs3)c1C#N)CCSc1ccccc1-2 | 0.447 | 60.1 | 56.1 | 0.695 | 0.6 | 55.4 | 0.27 | 56.6 | – | – | – | – | – | – | – | – | –
COc1ccc2c(c1)c(CC(=O)O)c(C)n2C(=O)c1ccc(Cl)cc1 [INDOMETHACIN] | – | – | – | – | – | – | – | – | – | 0.46 | 82.6 | 0.278 | 71.1 | 0.175 | 0.195 | 66.4 | 82.6

Reference: ChEMBL document CHEMBL1142913, “Novel synthesis of [1]-benzothiepino[5,4-b]pyridine-3-carbonitriles and their anti-inflammatory properties” (Bioorg Med Chem, 2007)
